Test results taken from patent US12268683B2, “Compounds and methods for synergistic activation of M channels” (THE REGENTS OF THE UNIVERSITY OF CALIFORNIA, priority 2018, dated 2025).

Biological target: T1, GLRA1 (Homo sapiens, UniProt P23415)
T1 sequence (P23415 29-457): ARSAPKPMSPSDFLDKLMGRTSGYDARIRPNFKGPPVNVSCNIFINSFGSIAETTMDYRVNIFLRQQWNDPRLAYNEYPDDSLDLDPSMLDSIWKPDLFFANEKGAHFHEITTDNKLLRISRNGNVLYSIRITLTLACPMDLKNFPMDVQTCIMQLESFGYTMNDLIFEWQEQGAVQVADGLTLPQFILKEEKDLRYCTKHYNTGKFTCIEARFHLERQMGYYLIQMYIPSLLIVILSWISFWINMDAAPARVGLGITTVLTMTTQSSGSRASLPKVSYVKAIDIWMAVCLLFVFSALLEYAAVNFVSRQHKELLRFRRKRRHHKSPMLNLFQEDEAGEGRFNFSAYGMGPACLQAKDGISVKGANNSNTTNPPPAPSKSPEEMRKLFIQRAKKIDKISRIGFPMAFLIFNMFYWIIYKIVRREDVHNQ
Experiment: TEVC of glycine receptor GLRA1 expressed in oocytes
Format: cell-based
Details: for activation of GLRA1 by compound alone: 1 mM
Description: We generated cRNA transcripts encoding human KCNQ1, KCNQ2, KCNQ3, KCNQ4, KCNQ5 or GLRA1 (NM_001146040) (GenScript, Piscataway, N.J., USA) by in vitro transcription using the T7 polymerase mMessage mMachine kit (Thermo Fisher Scientific), after vector linearization, from cDNA sub-cloned into plasmids incorporating Xenopus laevis β-globin 5′ and 3′ UTRs flanking the coding region to enhance translation and cRNA stability. We quantified cRNA by spectrophotometry. We generated mutant KCNQ2 and KCNQ3 cDNAs by site-directed mutagenesis using a QuikChange kit (Stratagene, San Diego, Calif.) and prepared the corresponding cRNAs as above. We injected defolliculated stage V and VI Xenopus laevis oocytes (Ecocyte Bioscience, Austin, Tex. and Xenoocyte, Dexter, Mich.) with KCNQ channel a subunit (5-20 ng) or GLRA1 (20 ng) cRNAs. We incubated the oocytes at 16° C. in Barth's saline solution (Ecocyte) containing penicillin and streptomycin, with daily washing, for 2-5 days prior to two-electrode voltage-clamp (TEVC) recording.
We performed TEVC at room temperature using an OC-725C amplifier (Warner Instruments, Hamden, Conn.) and pClamp10 software (Molecular Devices, Sunnyvale, Calif.) 3-5 days after cRNA injection as described in the section above. For recording, oocytes were placed in a small-volume oocyte bath (Warner) and viewed them with a dissection microscope. Chemicals were sourced from Sigma, Matrix Scientific and Santa Cruz. […] All stock solutions were diluted in bath solution on the day of experiments. KCNQ2/3 channel activation was screened for using either 30 μM or 100 μM concentrations of each of the six compounds, then dose responses were conducted as appropriate. Bath solution was (in mM): 96 NaCl, 4 KCl, 1 MgCl2, 1 CaCl2, 10 HEPES (pH 7.6). Compounds were introduced into the oocyte recording bath by gravity perfusion at a constant flow of 1 ml per minute for 3 minutes prior to recording. Pipettes were of 1-2 MΩ resistance when filled with 3 M KCl. Currents were recorded in response to voltage pulses between −120 or −80 mV and +40 mV at 20 mV intervals from a holding potential of −80 mV, to yield current-voltage relationships, current magnitude, and for quantifying activation rate. We analyzed data using Clampfit (Molecular Devices) and Graphpad Prism software (GraphPad, San Diego, Calif., USA); values are stated as mean±SEM. We plotted raw or normalized tail currents versus prepulse voltage and fitted with a single Boltzmann function: […]

Structure (SMILES) | inhibition of glycine-activated GLRA1 (100 μM, 1 mM glycine) [%] | inhibition of glycine-activated GLRA1 (in words) (100 μM, 1 mM glycine) | activation of GLRA1 by compound alone
CS(=O)(=O)N(CC(=O)O)c1cccc(F)c1 [3FMSG] | ~40 | partially inhibited | lack of effects
NCC(=O)O [glycine, reference compound] |  |  | robust activation
